Laboratory results published in PubChem BioAssay AID652247 (Sanford-Burnham Center for Chemical Genomics, 2013).
Calls of active or inactive are those of the source. The rule behind the calls is not given here.

Target: NEDD8-conjugating enzyme Ubc12 (Homo sapiens) + NEDD8-activating enzyme E1 regulatory subunit (Homo sapiens) (UniProt P61081+Q13564)
Experiment: inhibitors of CUL1 neddylation, potency, dose response, biochemical, TR-FRET (AID 652247)
Conditions: in vitro CUL1 neddylation

Chain of NEDD8-conjugating enzyme Ubc12 (Homo sapiens) + NEDD8-activating enzyme E1 regulatory subunit (Homo sapiens) (P61081 whole entry, looked up): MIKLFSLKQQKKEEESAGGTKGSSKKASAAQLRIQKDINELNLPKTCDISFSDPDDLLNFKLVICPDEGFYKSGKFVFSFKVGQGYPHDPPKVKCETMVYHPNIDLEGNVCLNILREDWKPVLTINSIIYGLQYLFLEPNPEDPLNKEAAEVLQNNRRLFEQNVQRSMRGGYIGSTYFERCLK
Chain of NEDD8-conjugating enzyme Ubc12 (Homo sapiens) + NEDD8-activating enzyme E1 regulatory subunit (Homo sapiens) (Q13564 whole entry, looked up): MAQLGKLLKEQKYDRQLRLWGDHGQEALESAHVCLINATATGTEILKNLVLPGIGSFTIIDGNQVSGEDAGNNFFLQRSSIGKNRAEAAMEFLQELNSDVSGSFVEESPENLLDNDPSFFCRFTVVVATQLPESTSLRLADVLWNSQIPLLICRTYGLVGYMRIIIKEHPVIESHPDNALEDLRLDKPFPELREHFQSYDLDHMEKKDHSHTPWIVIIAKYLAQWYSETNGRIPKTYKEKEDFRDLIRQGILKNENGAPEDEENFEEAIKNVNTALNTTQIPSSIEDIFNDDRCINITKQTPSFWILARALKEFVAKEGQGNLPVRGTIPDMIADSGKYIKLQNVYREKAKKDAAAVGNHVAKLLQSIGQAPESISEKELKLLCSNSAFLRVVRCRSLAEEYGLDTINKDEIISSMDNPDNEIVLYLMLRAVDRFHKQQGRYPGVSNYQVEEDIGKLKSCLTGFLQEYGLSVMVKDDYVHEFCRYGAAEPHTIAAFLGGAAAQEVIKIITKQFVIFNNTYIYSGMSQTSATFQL

Row | Structure (SMILES) | IC50
1 | CCOC(=O)c1cc2c(=O)n3ccccc3nc2n(C(C)C)c1=NC(=O)c1ccncc1 | inactive
2 | COc1ccccc1N(C(=O)c1snc(C(N)=O)c1N)C(C(=O)NC1CCCC1)c1ccco1 (centres undefined) | inactive
3 | COCCN(C(=O)COC(=O)c1cc2ccccc2cc1OC)c1c(N)n(Cc2ccccc2)c(=O)[nH]c1=O | inactive
4 | Cc1c(Cc2ccccc2)c(=O)oc2c(C)c(OCc3nn[nH]n3)ccc12 | > 100 µM (inactive)
5 | COc1ccc2cc(C(=O)N/N=C/c3cc(OC)c(OC)c(OC)c3)[nH]c2c1 | inactive
6 | COC(=O)c1ccc2[nH]c3c(c2c1)CC(C)CC3 (centres undefined) | inactive
7 | COCc1cc(C)nc(NC2CC(C)(C)NC(C)(C)C2)c1C#N | inactive
8 | COc1cc2sc(-c3ccc(S(C)(=O)=O)cc3)c(C#CCO)c2cc1OC | inactive
9 | CCOc1ccc2[nH]c(C(=O)N/N=C/c3cccc(OC)c3OC)cc2c1 | inactive
10 | CCN(CC)c1ccc(/C=N/NC(=O)C(O)c2ccccc2)cc1 (centres undefined) | inactive
11 | Cc1ccc2cc3cc(C(=O)NCCN4CCOCC4)oc3nc2c1 | 16.9 µM
12 | CCN(CC)c1ccc(/C=N/NC(=O)CNC(=O)c2cccs2)cc1 | 14.9 µM
13 | O=C(O)c1ccc2c(=O)n3c(nc2c1)/C(=C/c1ccc(C(F)(F)F)cc1)CC3 | inactive
14 | Cc1ccc2nc(-c3ccc(NC(=O)COCC(=O)O)cc3)sc2c1 | > 100 µM (inactive)
15 | COc1ccccc1N1CCN(C(=O)c2cc3c(=O)n4cccc(C)c4nc3s2)CC1 | inactive
16 | Cc1ccc2c(c1)COc1c3ccc(C(=O)NCCO)cc3nn1-2 | inactive
17 | CCc1ccc(-c2cnc3nc[nH]c(=O)c3n2)cc1 | 14.4 µM
18 | Cc1cc(C)cc(N(CC(=O)NC2CCCC2)C(=O)C2(C)CC(=O)N=C3C=CC=CN32)c1 (centres undefined) | inactive
19 | O=C(N/N=C/c1c(O)n(-c2ccccc2Cl)c(=O)c2ccccc12)C1COc2ccccc2O1 (centres undefined) | inactive
20 | CCOC(=O)CNC(=O)c1sc(NC(=O)c2ccccc2F)nc1C | inactive
21 | COc1ccc(-c2cc(=O)c3cc(O)ccc3o2)cc1 | inactive
22 | O=C(N/N=C/c1ccc2cccnc2c1)c1nc2ccccc2c(=O)[nH]1 | > 100 µM (inactive)
23 | Nc1ncnc2c1ncn2[C@@H]1O[C@H](COP(=O)(O)O)[C@@H](O)[C@H]1O | inactive
24 | c1cc2c3c(cccc3c1)-c1cnccc1-2 | inactive
25 | CCN(CC)c1ccc(/C=N/NC(=O)C2CC2)cc1 | inactive
26 | Cc1ccc2cc3cc(C(=O)NCCCN4CCc5ccccc5C4)oc3nc2c1 | 10.6 µM

Row | Structure (SMILES) | IC50
27 | Cc1ccccc1NC(=O)NNC(=O)c1ccc2ccccc2c1O | inactive
28 | O=c1c[n+]([O-])c2ccccc2n1OCc1c(F)cccc1F | inactive
29 | Cc1ccc(-c2cc(-c3ccc(C)cc3)[n+](-c3ccc(C(=O)[O-])cc3)c(-c3ccc(C)cc3)c2)cc1 | inactive
30 | CN=Cc1c(NC)nc2c(C)cccn2c1=O | inactive
31 | COC(=O)c1ccc(C(=O)OC)c(=O)[nH]1 | inactive
32 | O=C(CCCc1c[nH]c2ccccc12)N1CCN(c2ccc(N3CCOCC3)nn2)CC1 | inactive
33 | COC(=O)C1=C(C)NC2=C(C(=O)CCC2)C1c1ccc(-c2ccsc2C(=O)OC)o1 (centres undefined) | inactive
34 | COc1cccc(Cn2cc(/C=N/NC(=O)c3cc(O)cc(O)c3)c3ccccc32)c1 | inactive
35 | Cc1nn(C)cc1CN(C)C(=O)c1cc2nc(-c3ccco3)cc(C(F)(F)F)n2n1 | inactive
36 | Cc1cc(NC(=O)COC(=O)c2nccnc2N)n(-c2ccccc2)n1 | 13.2 µM
37 | OC1CCCN(Cc2c3ccccc3cc3ccccc23)C1 (centres undefined) | inactive
38 | CCN1CCN(C(=O)c2ccc3nc(-c4ccccc4)c(-c4ccccc4)nc3c2)CC1 | inactive
39 | CCOC(=O)C1CCCN(c2nc3ccccc3nc2NS(=O)(=O)c2ccc(C)cc2)C1 (centres undefined) | inactive
40 | C=CCN1C(=O)C(CC(=O)O)S/C1=N/N=C/c1ccc(N(CC)CC)cc1 (centres undefined) | inactive
41 | Cc1ccc(C)c(OCC(=O)N/N=C/c2ccc(N3CCOCC3)cc2)c1 | inactive
42 | CC(C)(C)c1ccc(/C=C2\CCn3c2nc2cc(C(=O)O)ccc2c3=O)cc1 | inactive
43 | COc1ccc2[nH]c(C(=O)N/N=C/c3cc(OC)c(OC)c(OC)c3)cc2c1 | inactive
44 | CCCN(CC(=O)Nc1ccccc1C)C(=O)c1ccc(-c2ccc(C(C)=O)cc2)o1 | 14.7 µM
45 | Cc1cccc(OCC(=O)N/N=C/c2ccc(N(C)C)cc2)c1 | inactive
46 | O=C(NC1CCCCC1)c1cnn2c(C(F)(F)F)cc(-c3ccco3)nc12 | inactive
47 | CS(=O)(=O)N(CC(=O)N/N=C/c1cccc2c1OCCO2)c1ccccc1Br | inactive
48 | COCCN1C=C(C(=O)OC)C(c2ccc3c(c2)OCO3)C(C(=O)OC)=C1 | inactive
49 | COc1ccc(Nc2cc3n(c(=O)n2)CCc2cc(OC)c(OC)cc2-3)cc1 | inactive
50 | CSc1ccc(/C=N/n2nnnc2N)cc1 | inactive
51 | COc1cccc(N(C(=O)c2snc(C(N)=O)c2N)C(C(=O)NCc2ccccc2)c2ccc(O)cc2)c1 (centres undefined) | inactive
52 | CC(=O)c1ccc(-c2ccc(C(=O)NCC(c3ccc(F)cc3)N3CCOCC3)o2)cc1 (centres undefined) | inactive

Row | Structure (SMILES) | IC50
53 | COc1ccc(C[C@H]2c3cc(O)c(OC)cc3CC[N+]2(C)[O-])cc1O (some centres undefined) | inactive
54 | CCOc1cc(/C=C/C(=O)Nc2ccc(C(=O)NCCN(CC)CC)cc2)ccc1OCC(C)C | inactive
55 | COc1ccc2sc(-c3ccc(SC)cc3)c(C#CCO)c2c1 | inactive
56 | CC(=CCOc1ccc2ccc(=O)oc2c1)C1=CC(=O)C(C)(C)O1 | inactive
57 | CC1(C)CC(NC(=O)COc2ccc3c4c(c(=O)oc3c2)CCCC4)CC(C)(C)N1 | inactive
58 | Cc1cccn2c(=O)c3cc(C(=O)N4CCN(Cc5ccccc5)CC4)sc3nc12 | 17.9 µM
59 | c1cnc2cc(-c3ccsc3)ncc2c1 | inactive
60 | O=C(N/N=C/c1cccnc1)c1ccc(CN2c3cccc4cccc(c34)S2(=O)=O)cc1 | inactive
61 | N#Cc1c2c(c(NCCOCCO)n3c1nc1ccccc13)CCCC2 | inactive
62 | O=c1oc2ccccc2cc1-c1cn2cccnc2n1 | inactive
63 | Cc1csc(NC(=O)c2cc(=O)[nH]c3ccc(S(=O)(=O)N4CCOCC4)cc23)n1 | inactive
64 | Cn1c(=O)c(-c2ccccc2)nc2ccccc21 | inactive
65 | CCN(CC)c1ccc(/C=N/NC(=O)Cc2ccc(OC)c(OC)c2)cc1 | inactive
66 | CN(C)c1ccc(/C=N/NC(=O)COc2ccccc2)cc1 | inactive
67 | CCCCCCc1c(C)c2ccc(OCC(=O)N3CCC[C@H]3C(=O)O)c(C)c2oc1=O | inactive
68 | CCOc1ccc2[nH]c3ncccc3c(=O)c2c1 | inactive
69 | O=C(CCc1ccccc1)Nc1nnc(-c2ccccn2)o1 | inactive
70 | COc1ccc(C(CC(=O)N2CCCCC2)c2c(OC)cc(OC)c3ccc(=O)oc23)cc1 (centres undefined) | inactive
71 | CC(C(=O)NCC1CCCO1)N(C(=O)c1snc(C(N)=O)c1N)c1cccc(F)c1 (centres undefined) | inactive
72 | CCC(=O)N/C(N)=N/c1nc(C)c2cc(OC)ccc2n1 | inactive
73 | CSc1ccc(/C=C2\CCn3c2nc2cc(C(=O)O)ccc2c3=O)cc1 | 19.4 µM
74 | N=c1c(C(=O)NCCN2CCOCC2)cc2c(=O)n3ccccc3nc2n1Cc1ccc(F)cc1 | 16.5 µM
75 | Oc1ccc(Br)cc1C=Nc1ccc2c3c(cccc13)CC2 | 12.1 µM
76 | CSc1cnc2c(=O)n(C)c(=O)[nH]c2n1 | inactive
77 | COc1ccc(C(=O)n2cc(C(=O)c3cc(C)ccc3O)cn2)cc1OC | inactive
78 | CCCCc1c(O)n2c(nc3ccccc32)[nH]c1=O | inactive

Row | Structure (SMILES) | IC50
79 | COCCNc1c2c(c(C#N)c3nc4ccccc4n13)CCCC2 | inactive
80 | c1ccc(C[n+]2cccc3c4ccccc4ccc32)cc1 | 9.52 µM
81 | COc1ccc(OC)c(C=NNC(=O)c2ccc(NS(=O)(=O)c3cccs3)cc2)c1 | inactive
82 | CCCCn1c(O)c(/C=N/NC(=O)c2ccncc2)c(=O)[nH]c1=S | inactive
83 | CCn1c(=O)c(-c2ccccc2)c(O)c2ccccc21 | 17 µM
84 | O=C(O)Cn1c(=O)c(-c2ccccc2)nc2ccccc21 | inactive
85 | COCCNC(=O)c1ccc2c3n(nc2c1)-c1ccc(C)cc1CO3 | inactive
86 | COC(=O)c1sc2nc3c(cc2c1N)COC(C)(C)C3 | inactive
87 | Cc1ccc2oc(-c3ccco3)cc(=O)c2c1 | inactive
88 | CCN(CC)c1ccc(/C=N/NC(=O)CC(C)C)cc1 | inactive
89 | CC(NC(=O)C1=CC=CN2CCS(=O)(=O)N=C12)c1ccc(Cl)c(Cl)c1 (centres undefined) | inactive
90 | CN(C)c1ccc(/C=N/NC(=O)CCc2nc3ccccc3[nH]2)cc1 | inactive
91 | O=C(O)c1cc(N2CCCCC2)nc2ccccc12 | inactive
92 | COc1cc(C=NNC(=O)c2ccc(NS(=O)(=O)c3cccs3)cc2)cc(Br)c1O | inactive
93 | COCCNC(=O)CSc1ccc(-c2nc3ccccc3[nH]2)cn1 | inactive
94 | COc1ccc(/C=C/c2ccc(=O)n(Cc3ccccc3)n2)cc1 | > 100 µM (inactive)
95 | Cc1cc(NS(=O)(=O)c2ccc(NC(=O)c3cc4c(=O)n5ccccc5nc4s3)cc2)nc(C)n1 | 18 µM
96 | COC(=O)c1nc2cc3c(cc2c(C)c1C(=O)OC)OCO3 | inactive
97 | Cc1ccc(C(=O)N/C(=C\c2cccs2)c2nc3ccccc3[nH]2)cc1 | inactive
98 | CC1CCCC(C)N1C(=O)CN1c2cccc3cccc(c23)S1(=O)=O (centres undefined) | inactive
99 | O=C(NC1CCCCC1)C(c1ccncc1)n1c(=O)c(-c2ccccc2)nc2ccccc21 (centres undefined) | inactive
100 | C[n+]1ccc(-c2ccccc2)c2ccccc21 | > 100 µM (inactive)
101 | COc1ccc(C(C(=O)NCC2CCCO2)N(C(=O)c2snc(C(N)=O)c2N)c2ccccc2)cc1OC (centres undefined) | inactive
102 | CS(=O)(=O)c1ccc2nc(NC(=O)c3ccc(Cl)nc3)sc2c1 | 14 µM
103 | O=C(O)c1sc2cc(C(F)(F)F)cnc2c1-c1cccs1 | inactive
104 | CCOC(=O)N1CCN(S(=O)(=O)c2ccc3c4c(cccc24)C(=O)N3)CC1 | inactive
